Eleven compounds from patent US20250092065A1, “2-(INDAZOL-5-YL)-6-(PIPERIDIN-4-YL)-1,7-NAPHTHYRIDINE DERIVATIVES AND RELATED COMPOUNDS AS MODULATORS FOR SPLICING NUCLEIC ACIDS AND FOR THE TREATMENT OF PROLIFERATIVE DISEASES” (REMIX THERAPEUTICS INC., priority 2022, published 2025) can be followed below.

Where two headings read alike, the source gives them in different places.

In series [1] the test system is K562 cells. The series can be described thus: Cell Titer Glo 2.0 cell viability (toxicity) assay, K562. The conditions noted are these: 500 cells/well, 72 hours. On the technique in general: In ATP-based viability assays light output follows the ATP content of the culture.
Series [2] relates to HTT mRNA. The series can be described thus: RT-qPCR splicing assay, HTT mRNA canonical (CJ) and alternative (AJ) junction. In kind it is cell-based, human. To be noted: Homo sapiens; for AC50: HTT alternative junction mRNA, read-out: HTT AJ (increase in AJ mRNA, AC50). In a few lines:
(§1)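 A673 or K562 cells treated 24 h at 37 °C with 11-point 3-fold dilutions (top final 10 uM, DMSO ≤0.25%). Lysates analysed by one-step RT-qPCR for canonical (CJ) and alternative-exon (AJ) junctions, normalized to GAPDH, GUSB or PPIA. ΔΔCt vs DMSO, RQ = 2^(−ΔΔCt), expressed as percentage response.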
(In general: In qPCR the cycle at which signal appears reflects the starting amount.)

In series [3] the test system is Target C. The series can be described thus: HiBiT protein abundance assay, Target C (K562 HiBiT knock-in). The class given is cell-based, human. The conditions noted are these: HiBiT knock-in K562 cells, 24 hours, top dose 10 μM. In a few lines: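 K562 HiBiT knock-in cells (10000/well) were treated 24 h at 37° C with a 10-point 3-fold dilution series (top 10 μM final, ≤0.25% DMSO). HiBiT luminescence was read after lytic LgBiT detection. Percent response used unmodified K562 and DMSO-treated knock-in controls, and IC50 came from a four-parameter fit at 50% of untreated.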
Background: With HiBiT, luminescence reflects the tagged protein that the partner subunit can reach.

For series [4], the system named is MYB mRNA. The series can be described thus: RT-qPCR splicing assay, MYB mRNA canonical (CJ) and alternative (AJ) junction. The class given is cell-based, human. The conditions noted are these: Homo sapiens; for AC50: MYB alternative junction mRNA, read-out: MYB AJ (increase in AJ mRNA, AC50). The method in brief:
as §1

For series [5], the system named is HTT. The series can be described thus: HiBiT protein abundance assay, HTT (K562 HiBiT knock-in). In kind it is cell-based, human. To be noted: HiBiT knock-in K562 cells, 24 hours, top dose 10 μM. The method in brief:
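Tagged-protein levels were measured as HiBiT/LgBiT luminescence in lysed K562 knock-in cells exposed to serially diluted compound (up to 10 μM final) for 24 hours. A four-parameter logistic regression of control-normalized signal yielded the IC50.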

The mark [6] stands for this setting: HTT canonical junction mRNA, RT-qPCR, read-out: HTT CJ (decrease in CJ mRNA levels, IC50).
[7] abbreviates: canonical junction qPCR panel, Table 4, read-out: HTT IC50 (decrease in CJ mRNA levels).
Setting [8] is: MYB canonical junction mRNA, RT-qPCR, read-out: MYB CJ (decrease in CJ mRNA levels, IC50).
The mark [9] stands for this setting: canonical junction qPCR panel, Table 4, read-out: MYB IC50 (decrease in CJ mRNA levels).

As to `Cc1c(O)c(-c2ccc3nc(N4CCC(NC5CCC5)C4)ccc3n2)cc2cn(C)nc12` (stereo not drawn) [Compound 288, 5-{6-[3-(cyclobutylamino)pyrrolidin-1-yl]-1,5-naphthyridin-2-yl}-2,7-dimethylindazol-6-ol], the “Effect of Exemplary Compounds on Cell Viability, K562” value (“Effect of Exemplary Compounds” for short) in series [1] is “B (B represents 100-1000 nM)”. In addition, the AC50 in series [2] (RT-qPCR) and in series [4] (RT-qPCR) was < 0.1 µM each time. The IC50 in series [2] (setting [6]), in series [2] (setting [7]), in series [3], in series [4] (setting [8]), in series [4] (setting [9]) and in series [5] was < 0.1 µM each time.
Regarding `Cc1nc2c(F)c(O)c(-c3ccc4nc(N5CCC(NC6CCC6)C5)ccc4n3)cc2o1` (stereo not drawn) [Compound 293, 6-{6-[3-(cyclobutylamino)pyrrolidin-1-yl]-1,5-naphthyridin-2-yl}-4-fluoro-2-methyl-1,3-benzoxazol-5-ol], the “Effect of Exemplary Compounds” value in series [1] was “A (A represents <100 nM)”. Moreover, the AC50 in series [2] (RT-qPCR) and in series [4] (RT-qPCR) was < 0.1 µM throughout. Besides, the IC50 in series [2] (setting [6]), in series [2] (setting [7]), in series [3], in series [4] (setting [8]), in series [4] (setting [9]) and in series [5] was < 0.1 µM throughout.
With `Cn1cc2cc(-c3ccc4nc(N5CCC(NC67CC(C6)C7)C5)ccc4n3)c(O)cc2n1` (stereo not drawn) [Compound 297, 5-[6-(3-{bicyclo[1.1.1]pentan-1-ylamino}pyrrolidin-1-yl)-1,5-naphthyridin-2-yl]-2-methylindazol-6-ol], the “Effect of Exemplary Compounds” value in series [1] is “D (D represents greater than 10 μM in K562 cells)”. Also, the values for the AC50 in series [2] (RT-qPCR) and in series [4] (RT-qPCR) were 1 to 10 µM and 0.1 to 1 µM, respectively. In addition, the IC50 in series [2] (setting [6]), in series [2] (setting [7]), in series [3], in series [4] (setting [8]), in series [4] (setting [9]) and in series [5] was 1 to 10 µM in each case.
Consider `Cn1cc2nc(-c3ccc4nc(N5CCC(NC(C)(C)C)C5)ccc4n3)c(O)cc2n1` (stereo not drawn) [Compound 298, 5-{6-[3-(tert-butylamino)pyrrolidin-1-yl]-1,5-naphthyridin-2-yl}-2-methylpyrazolo[4,3-b]pyridin-6-ol], for which the “Effect of Exemplary Compounds” value in series [1] is reported as “B (B represents 100-1000 nM)”. Moreover, the AC50 in series [2] (RT-qPCR) and in series [4] (RT-qPCR) was < 0.1 µM throughout. The IC50 in series [2] (setting [6]), in series [2] (setting [7]), in series [3], in series [4] (setting [8]), in series [4] (setting [9]) and in series [5] was < 0.1 µM each time.
On to `Cn1cc2cc(-c3ccc4nc(N5CC[C@H](N[C@H]6C[C@@H](F)C6)C5)ccc4n3)c(O)cc2n1` [Compound 299, 2-methyl-5-{6-[(3S)-3-{[(1s,3s)-3-fluorocyclobutyl]amino}pyrrolidin-1-yl]-1,5-naphthyridin-2-yl}indazol-6-ol], for which, in series [1], the “Effect of Exemplary Compounds” value is “B (B represents 100-1000 nM)”. The AC50 is 0.1 to 1 µM in series [2] (RT-qPCR) and < 0.1 µM in series [4] (RT-qPCR). The concentration for half-maximal inhibition (IC50) in series [2] (setting [6]) was < 0.1 µM; in series [2] (setting [7]), < 0.1 µM; in series [3], 0.1 to 1 µM; in series [4] (setting [8]) it was < 0.1 µM; in series [4] (setting [9]), < 0.1 µM; in series [5], < 0.1 µM.
For the compound `Cc1c(O)c(-c2ccc3nc(N4CCC(NC5COC5)C4)ccc3n2)cc2cn(C)nc12` (stereo not drawn) [Compound 302, 2,7-dimethyl-5-{6-[3-(oxetan-3-ylamino)pyrrolidin-1-yl]-1,5-naphthyridin-2-yl}Indazol-6-ol], the “Effect of Exemplary Compounds” value in series [1] was “C (C represents 1000-9999 nM)”. Moreover, the AC50 in series [2] (RT-qPCR) and in series [4] (RT-qPCR) was 0.1 to 1 µM in each case. In addition, the IC50 in series [2] (setting [6]), in series [2] (setting [7]), in series [3], in series [4] (setting [8]), in series [4] (setting [9]) and in series [5] was 0.1 to 1 µM each time.
As for `Cc1nc2c(C)c(O)c(-c3ccc4nc(N5CCC(NC6(C)CC6)C5)ccc4n3)cc2o1` (stereo not drawn) [Compound 309, 2,4-dimethyl-6-(6-{3-[(1-methylcyclopropyl)amino]pyrrolidin-1-yl}-1,5-naphthyridin-2-yl)-1,3-benzoxazol-5-ol], the “Effect of Exemplary Compounds” value in series [1] is recorded as “B (B represents 100-1000 nM)”. The AC50 in series [2] (RT-qPCR) and in series [4] (RT-qPCR) was < 0.1 µM throughout. In addition, the IC50 in series [2] (setting [6]), in series [2] (setting [7]), in series [3], in series [4] (setting [8]), in series [4] (setting [9]) and in series [5] was < 0.1 µM each time.
As for `Cc1nc2c(C)c(O)c(-c3ccc4nc(N5CCC(NC(C)C)C5)ccc4n3)cc2o1` (stereo not drawn) [Compound 312, 6-{6-[3-(isopropylamino)pyrrolidin-1-yl]-1,5-naphthyridin-2-yl}-2,4-dimethyl-1,3-benzoxazol-5-ol], the “Effect of Exemplary Compounds” value in series [1] is given as “A (A represents <100 nM)”. Moreover, the AC50 in series [2] (RT-qPCR) and in series [4] (RT-qPCR) was < 0.1 µM each time. Besides, the IC50 in series [2] (setting [6]), in series [2] (setting [7]), in series [3], in series [4] (setting [8]), in series [4] (setting [9]) and in series [5] was < 0.1 µM throughout.
For `Cn1cc2cc(-c3ccc4nc(N5CCC(NC6CCC6)C5)ccc4n3)c(O)c(F)c2n1` (stereo not drawn) [Compound 315, 5-{6-[3-(cyclobutylamino)pyrrolidin-1-yl]-1,5-naphthyridin-2-yl}-7-fluoro-2-methylindazol-6-ol], the “Effect of Exemplary Compounds” value in series [1] is “A (A represents <100 nM)”. The AC50 in series [2] (RT-qPCR) and in series [4] (RT-qPCR) was < 0.1 µM in each case. Also, the IC50 in series [2] (setting [6]), in series [2] (setting [7]), in series [3], in series [4] (setting [8]), in series [4] (setting [9]) and in series [5] was < 0.1 µM in each case.
As for `Cc1c(O)c(-c2ccc3nc(N4CCC(NC(C)C)C4)ccc3n2)cc2cn(C)nc12` (stereo not drawn) [Compound 318, 5-{6-[3-(isopropylamino)pyrrolidin-1-yl]-1,5-naphthyridin-2-yl}-2,7-dimethylindazol-6-ol], in series [1], the “Effect of Exemplary Compounds” value is given as “A (A represents <100 nM)”. The AC50 in series [2] (RT-qPCR) and in series [4] (RT-qPCR) was < 0.1 µM each time. The IC50 in series [2] (setting [6]), in series [2] (setting [7]), in series [3], in series [4] (setting [8]), in series [4] (setting [9]) and in series [5] was < 0.1 µM in each case.
As for `Cc1c(O)c(-c2ccc3nc(N4CC[C@H](NC(C)C)C4)ccc3n2)cc2cn(C)nc12` [Compound 320], in series [1], the “Effect of Exemplary Compounds” value is on record as “B (B represents 100-1000 nM)”. For the same compound, the AC50 in series [2] (RT-qPCR) and in series [4] (RT-qPCR) was < 0.1 µM in each case. Moreover, the IC50 in series [2] (setting [6]), in series [2] (setting [7]), in series [3], in series [4] (setting [8]), in series [4] (setting [9]) and in series [5] was < 0.1 µM throughout.

The term AC50 denotes the concentration at which the activity in the assay is half-maximal. What is called IC50 is the concentration at which inhibition is half-maximal.
